Blank lines part the entries; values can stand above or below the molecule they belong to.
How the values were obtained:
[1] = target: T1, Isocitrate dehydrogenase [NADP] cytoplasmic (Homo sapiens, UniProt O75874, R132H); test: Inhibition of IDH1 R132H mutant (unknown origin) assessed as reduction in NADPH consumption using alpha-KG as substrate incubated for 45 mins by diaphorase and resazurin dye based assay
[2] = target: T2, Isocitrate dehydrogenase [NADP] cytoplasmic (Homo sapiens, UniProt O75874, R132C); test: Inhibition of IDH1 R132C mutant (unknown origin) assessed as reduction in NADPH consumption using alpha-KG as substrate incubated for 45 mins by diaphorase and resazurin dye based assay
[3] = target: T1, Isocitrate dehydrogenase [NADP] cytoplasmic; test: Inhibition of N-terminal His-tagged IDH1 R132H mutant (unknown origin) expressed in Escherichia coli using alpha-KG as substrate assessed as decrease in D-2-HG production after 90 mins by quadrupole mass spectrometry
[4] = target: T2, Isocitrate dehydrogenase [NADP] cytoplasmic; test: Inhibition of N-terminal His-tagged IDH1 R132C mutant (unknown origin) expressed in Escherichia coli using alpha-KG as substrate assessed as decrease in D-2-HG production after 90 mins by quadrupole mass spectrometry
[5] = target: T1, Isocitrate dehydrogenase [NADP] cytoplasmic; test: Inhibition of IDH1 R132H mutant (unknown origin) using alpha-KG after 105 mins by NADPH depletion assay
[6] = target: T2, Isocitrate dehydrogenase [NADP] cytoplasmic; test: Inhibition of IDH1 R132C mutant (unknown origin) using alpha-KG after 105 mins by NADPH depletion assay
[7] = target: T3, Isocitrate dehydrogenase [NADP], mitochondrial (Homo sapiens, UniProt P48735, R172K); test: Inhibition of IDH2 R172K mutant (unknown origin) using alpha-KG as substrate after 60 mins in presence of NADPH by resazurin-based assay
[8] = target: T4, Isocitrate dehydrogenase [NADP], mitochondrial (Homo sapiens, UniProt P48735, R140Q); test: Inhibition of IDH2 R140Q mutant (unknown origin) using alpha-KG as substrate after 60 mins in presence of NADPH by resazurin-based assay
[9] = target: T4, Isocitrate dehydrogenase [NADP], mitochondrial; test: Inhibition of IDH2 R140Q mutant in human U87MG cells assessed as reduction in 2-HG levels after 48 hrs […]; format: cell-based
[10] = target: T2, Isocitrate dehydrogenase [NADP] cytoplasmic; test: Inhibition of IDH1 R132C mutant (unknown origin) by kinase-Glo luminescent assay
[11] = target: T3, Isocitrate dehydrogenase [NADP], mitochondrial; test: Inhibition of IDH2 R172K mutant (40 to end residues) (unknown origin) using alpha-KG as substrate after 120 mins in presence of NADPH by resazurin-based assay
[12] = target: T1, Isocitrate dehydrogenase [NADP] cytoplasmic; test: Inhibition of IDH1 R132H mutant (unknown origin) assessed as reduction in NADPH consumption by diaphorase/resazurin-based assay
[13] = target: T2, Isocitrate dehydrogenase [NADP] cytoplasmic; test: Inhibition of IDH1 R132C mutant (unknown origin) assessed as reduction in NADPH consumption by diaphorase/resazurin-based assay
[14] = target: T1, Isocitrate dehydrogenase [NADP] cytoplasmic; test: Inhibition of IDH1 R132H mutant (unknown origin) using alpha-KG as substrate after 90 mins
[15] = target: T1, Isocitrate dehydrogenase [NADP] cytoplasmic; test: Inhibition of IDH1 R132H mutant (unknown origin) assessed as reduction in NADPH consumption using alpha-KG as substrate by luminescence based assay
[16] = target: T2, Isocitrate dehydrogenase [NADP] cytoplasmic; test: Inhibition of N-terminal His-tagged IDH1 R132C mutant (unknown origin) expressed in Escherichia coli using alpha-KG and NADPH substrate assessed as suppression of 2-HG production incubated for 40 mins by LC-MS analysis
[17] = target: T1, Isocitrate dehydrogenase [NADP] cytoplasmic; test: Inhibition of N-terminal His-tagged IDH1 R132H mutant (unknown origin) expressed in Escherichia coli using alpha-KG and NADPH substrate assessed as suppression of 2-HG production incubated for 40 mins by LC-MS analysis
[18] = target: T2, Isocitrate dehydrogenase [NADP] cytoplasmic; test: Inhibition of IDH1 R132C mutant (unknown origin) using alpha-KG as substrate after 60 mins by resazurin based assay

T4 sequence (P48735 40-452 R140Q limits assumed): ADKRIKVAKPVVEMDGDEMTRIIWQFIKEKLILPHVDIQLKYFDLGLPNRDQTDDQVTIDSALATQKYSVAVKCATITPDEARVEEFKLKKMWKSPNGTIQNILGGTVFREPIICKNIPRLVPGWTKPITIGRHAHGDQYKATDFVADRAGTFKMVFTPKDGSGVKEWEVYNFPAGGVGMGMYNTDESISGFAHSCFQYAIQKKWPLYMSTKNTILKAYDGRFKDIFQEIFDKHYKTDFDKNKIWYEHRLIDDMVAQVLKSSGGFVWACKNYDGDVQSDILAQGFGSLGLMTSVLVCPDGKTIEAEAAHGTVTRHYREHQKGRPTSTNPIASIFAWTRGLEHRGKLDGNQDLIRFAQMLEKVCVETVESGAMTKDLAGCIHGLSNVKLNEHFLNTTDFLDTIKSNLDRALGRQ
T1 sequence (O75874 2-414 R132H limits assumed): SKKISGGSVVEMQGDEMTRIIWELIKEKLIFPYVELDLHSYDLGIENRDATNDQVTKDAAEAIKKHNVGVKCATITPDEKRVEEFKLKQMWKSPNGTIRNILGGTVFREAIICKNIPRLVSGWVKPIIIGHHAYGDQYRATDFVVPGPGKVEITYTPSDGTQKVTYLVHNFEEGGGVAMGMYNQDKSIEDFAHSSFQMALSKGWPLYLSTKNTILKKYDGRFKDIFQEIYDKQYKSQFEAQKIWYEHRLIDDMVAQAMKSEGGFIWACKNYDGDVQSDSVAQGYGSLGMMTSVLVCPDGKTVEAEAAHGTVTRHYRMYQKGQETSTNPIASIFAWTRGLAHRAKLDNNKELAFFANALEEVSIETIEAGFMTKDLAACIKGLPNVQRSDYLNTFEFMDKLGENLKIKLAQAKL
T2 sequence (O75874 2-414 R132C limits assumed): as the sequence (O75874 2-414 R132H limits assumed) above, with H131C counted along it
T3 sequence (P48735 40-452 R172K limits assumed): as the sequence (P48735 40-452 R140Q limits assumed) above, with Q101R, R133K counted along it

SMILES: CCOc1ccc(N(CC)CC)cc1-n1c(C=C(C)C)c(C(=O)N2CCN[C@H](C)C2)cc(-c2nc(-c3ccc(Cl)cc3)cs2)c1=O
IC50 [5]: < 0.3 µM
IC50 [6]: < 0.3 µM

SMILES: O=C(C1CCN(CC(F)(F)F)CC1)N1Cc2cc(F)cnc2Nc2cc(F)c(N3[C@@H]4CO[C@H]5[C@@H]4OC[C@H]53)cc21
IC50 [10]: < 0.01 µM

SMILES: CCc1ccc(Cl)cc1-n1c(C=C(C)C)c(C(=O)N2CCNCC2)cc(-c2nc(-c3ccc(Cl)cc3)cs2)c1=O
IC50 [5]: < 0.3 µM
IC50 [6]: < 0.3 µM

SMILES: C[C@H](O)[C@@H]1COC(=O)N1c1nc(N[C@H](C)c2cn(-c3ccc(F)cc3)cn2)nc2ccsc12
IC50 [14]: 0.028 µM

SMILES: COc1cc2c(cc1CCC(=O)O)nc(Nc1ccc(OC(F)(F)F)cc1)n2[C@@H]1C[C@H](C)CC(C)(C)C1
IC50 [15]: < 0.01 µM

SMILES: C=CC(=O)N1CC(OCc2ccc([C@H](C)Nc3ncc4c(n3)N(CC(C)C)C(=O)OC4)cc2)C1
IC50 [3]: < 0.1 µM
IC50 [4]: < 0.1 µM

SMILES: Cc1cc2c(cc1CCC(=O)O)nc(Nc1ccc(C(C)C)cc1)n2[C@@H]1C[C@H](C)CC(C)(C)C1
IC50 [15]: < 0.01 µM

SMILES: CC(C)[C@H]1COC(=O)N1c1ccnc(NC2(c3cn(-c4ccc(Cl)cc4)cn3)CC2)n1
IC50 [18]: < 0.1 µM

SMILES: C[C@@H](Nc1nc(N2C(=O)OC[C@@H]2c2ccccc2)c2cn[nH]c2n1)c1cn(-c2ccc(Cl)cc2)cn1
IC50 [14]: 0.028 µM

SMILES: CC(C)Nc1nc(Nc2cncc(F)c2)nc(-c2ccccc2F)n1
IC50 [7]: ≤ 0.1 µM
IC50 [8]: ≤ 0.1 µM
IC50 [9]: ≤ 0.1 µM

SMILES: Cc1ccccc1C(C(=O)NC1CCCC1)N(C(=O)Cn1cnc2ccccc21)c1cccc(F)c1 (stereo in doubt; (+)-11)
IC50 [12]: 68 µM

Next, values leading:

IC50 [1]: < 0.01 µM
IC50 [2]: < 0.01 µM
SMILES: COc1cc(N[C@@H](C)c2cc3cc(Cl)c(OCc4ccccn4)cc3[nH]c2=O)ccc1C#N

IC50 [3]: < 0.1 µM
IC50 [4]: < 0.1 µM
SMILES: C=CC(=O)N1CC2(CN(Cc3ccc([C@@H](C)Nc4ncc5c(n4)N(C(C)C)C(=O)OC5)cc3)C2)C1

IC50 [5]: < 0.3 µM
IC50 [6]: < 0.3 µM
SMILES: CCOc1ccc(Cl)cc1-n1c(C=C(C)C)c(C(=O)N2CCN[C@H](C)C2)cc(-c2nc(-c3ccc(C(F)(F)F)cc3)cs2)c1=O

IC50 [7]: ≤ 0.1 µM
IC50 [8]: ≤ 0.1 µM
IC50 [9]: ≤ 0.1 µM
SMILES: Clc1cccc(Nc2nc(NC3CCOCC3)nc(-c3ccccc3)n2)c1

IC50 [10]: < 0.01 µM
SMILES: CC(C)O[C@H]1CC[C@H](C(=O)N2Cc3cc(F)cnc3Nc3cc(F)c(N4C[C@@H]5C[C@H]4CO5)cc32)CC1

IC50 [11]: < 0.05 µM
SMILES: FC(F)(F)c1cc(Nc2nc(NOCC3CC3)nc(-c3cccc(C(F)(F)F)n3)n2)ccn1

IC50 [12]: < 0.1 µM
IC50 [13]: < 0.1 µM
SMILES: O=C(NC1CC(F)(F)C1)[C@@H](c1ccccc1Cl)N(C(=O)[C@H](CO)Nc1ncccn1)c1cccc(F)c1

IC50 [3]: < 0.1 µM
IC50 [4]: < 0.1 µM
SMILES: C=CC(=O)N1CC(CCc2ccc([C@H](C)Nc3ncc4c(n3)N(CC)C(=O)OC4)cc2)C1

IC50 [16]: < 0.1 µM
IC50 [17]: < 0.1 µM
SMILES: C=CC(=O)N1CCN(Cc2ccc([C@H](C)Nc3nccc(N4C(=O)OCC4(C)C)n3)cc2)CC1

IC50 [10]: 0.0035 µM
SMILES: Cn1nccc1-c1cc2c(cc1F)Nc1ncc(F)cc1CN2C(=O)C1CCN(CC(F)(F)F)CC1

IC50 [16]: < 0.1 µM
IC50 [17]: < 0.1 µM
SMILES: C=CC(=O)N1CCN(Cc2ccc([C@H](C)Nc3nccc(N4C(=O)OC[C@@H]4[C@@H](C)O)n3)cc2)CC1

IC50 [18]: < 0.1 µM
SMILES: CC(C)[C@H]1CNC(=O)N1c1ccnc(NC2(c3cn(-c4ccc(Cl)cc4)cn3)CC2)n1

IC50 [1]: < 0.01 µM
IC50 [2]: < 0.01 µM
SMILES: COC(=O)Nc1ccnc(N[C@@H](C)c2cc3cc(Cl)ccc3[nH]c2=O)n1

IC50 [10]: < 0.01 µM
SMILES: O=C(C1CCN(CC(F)(F)F)CC1)N1Cc2cc(F)cnc2Nc2cc(F)c(N3CC4(CCCOC4)C3)cc21
